Test [1] deals with patients with chronic thromboembolism and displaying secondary PHT. As to the kind of experiment: Pulmonary vascular resistance (delta PVR, right cardiac catheterization) in patients with chronic thromboembolism. It counts as in vivo, human. The settings on record: for effect on pulmonary vascular resistance: 7 patients with CTEPH; for vascular resistance (PVR), reduction: 7 patients, PGI i.v. 6 ng/kg/min, NO 20 ppm inhaled, sildenafil 50 mg oral. The protocol:
FIG. 4: Result of measurement of the arterial oxygen partial pressure (PaO2) on 7 patients with chronic thromboembolism and displaying secondary PHT (pulmonary hypertension). The arterial oxygen partial pressure was improved by NO (inhaled) [20 ppm] and sildenafil (oral) [50 mg] by respectively 1.8% and 7.6%, whereas the oxygen saturation fell by 13% after administration of PGI (intravenous). In the same experiment, the vascular resistance was measured and determined as delta PVR by a right cardiac catheterization. The vascular resistance was reduced respectively by 25%, 19% and 21% after administration of PGI (intravenous) [6 ng/kg bodyweight/min], NO (inhaled) [20 ppm] and sildenafil (oral) [50 mg].
(§1) 7 patients with CTEPH underwent a Swan-Ganz catheter investigation with measurement of the ventilation/perfusion (V/Q) distribution (using the multiple inert gas elimination technique (MIGET)). After determination of the baseline parameters (haemodynamics and gas exchange), all the patients initially inhaled 20 ppm NO, followed by a second baseline period (10-15 min), and then PGI was infused (6 ng/kg bodyweight/min), again followed by a second baseline period (10-15 min) and then an oral dose of 50 mg of sildenafil was given (120-150 min follow-up). 3 of the 7 patients were controlled by continuous nasal oxygen therapy in order to reach an arterial oxygenation of >88%. The following parameters were measured under baseline conditions: mean pulmonary arterial pressure (mPAP) 52.1 +/−3.3 mmHg, cardiac index (CI) 2.2+/−0.1 |* min^−1*m^−2, pulmonary vascular resistance index (PVRI) 1703.8+/−129.5 dyn*s*cm^−6*m^2, arterial pO2 72.5+/−3.3 mmHg and mixed venous oxygen saturation (SvO2) of 63.4+/−2.2%.

Test [2] relates to bleomycin-induced pulmonary fibrosis in rabbits. Nature of the test: Oxygenation index (PaO2/FiO2) in bleomycin-induced pulmonary fibrosis. It counts as in vivo, rabbit. The settings on record: for effect on O2 saturation: FIG. 2; for oxygenation index (PaO2/FiO2), raised compared with the control (190): NO 20 ppm inhaled, sildenafil 1 mg/kg oral. As to the method:
FIG. 2: Result of determination of the oxygenation index (arterial oxygen partial pressure/fraction of inspired oxygen [PaO2/FiO2]) measured in the model of bleomycin-induced pulmonary fibrosis in rabbits. Whereas systemic PGI (6 ng/kg body weight/min] (PGI, prostacyclin) reduces the oxygenation index by 60% compared with the control (190), the oxygenation index was markedly raised by inhaled NO [20 ppm] by 28% and sildenafil (oral) [1 mg/kg body weight] by 31%.
Healthy rabbits of both sexes were pretreated orally with a gyrase inhibitor (Baytril®) for one week. Ten animals pretreated in this way were not treated with bleomyin and served as control, and, on the day of exposure, the others were anaesthetized with a Ketanest®/Rompun® mixture, intubated intratracheally and ventilated mechanically. An ultrasonic nebulizer (MMAD 2.5 μm) was used to administer by inhalation exactly 1.8 U/kg of bodyweight of bleomycin under volume-controlled ventilation. After 4, 8, 16, 24, 32 and 64 days (in each case n≧5) post exposure, the animals were again anaesthetized, provided with an arterial access (right carotid artery) and underwent bodyweight-adapted ventilation via a tracheostomy in a volume-controlled method. The arterial pO2 and pCO2, and the static compliance of the lung were measured (by recording the intrathoracic pressure and with slow inflation/deflation manoeuvres). Subsequently, the lungs of these animals were dissected and perfused with a Krebs Hensefeit buffer. Under these conditions, the capillary filtraton coefficient (cfc) was then found from the weight gain of the organ after increasing the pulmonary venous pressure by 7.5 mmHg, and the peak ventilation pressure was found. After completion of these measurements, the left main bronchus was ligated in the end-inspiratory position and a bronchoalveolar lavage (BAL) was performed on the right lung. Subsequently, the large vessels and airways of the right lung were dissected off and the organ was homogenized. The left lung was perfusion-fixed with 4% formalin solution while maintaining a pressure gradient of 25 cm H2O and was then stored in 4% formalin until embedded. Firstly, the cells were removed from the BAL, counted and differentiated via a Papenheim stain. The cell-free BAL supernatant was then aliquoted and submitted to further analysis of the surfactant and coagulation properties and a determination of the matrix metallo proteinases (MMPs) and their inhibitors (TIMPs) and of soluble collagen. Bronchoalveolar deposition of 1.8 U/kg of bodyweight of bleomycin led initially to development of an ARDS-like event, with a massive restriction of gas exchange (paO2/FiO2 of >500 mmHg in the controls reduced to ˜110 mmHg on day 4), ground-glass opacities over all sections of the lung in the HRCT and an increase of about 5-fold in the capillary filtration coefficient (cfc). In the later phase of bleomycin-induced lung damage there was then development of pronounced fibrosis which could be confirmed on the basis of the increase in soluble collagen in the BAL and the hydroxyproline in the tissue, on the basis of the histological specimens and of the HRCT findings. […] Consistent with this, a pronounced increase in the extracellular matrix and an alveolar and also interstitial ingress of fibroblasts was observable in the histological sections. Besides the homogeneously distributed zones of fibrosis there were also thin hyperdistended sections of lung with a honeycomb appearance.
Systemically administered PGI (vasodilatator) increased the shunting to about 30%. […] The data for O2 saturation (FIG. 2) correspond directly.

Test [3] relates to patients with ILD displaying secondary PHT. Nature of the test: Pulmonary vascular resistance in patients with ILD. It counts as in vivo, human. The settings on record: 7 patients with ILD. The protocol: as §1, with “ILD” for “CTEPH”, “5” for “3”, “39.6+/−2.8 mmHg and” for “52.1 +/−3.3 mmHg, cardiac index (CI) 2.2+/−0.1 |* min^−1*m^−2,”, “1255+/−215 dyn*s*cm−5*m^2.” for “1703.8+/−129.5 dyn*s*cm^−6*m^2, arterial pO2 72.5+/−3.3 mmHg and mixed venous oxygen saturation (SvO2) of 63.4+/−2.2%.”
By contrast, PGI (intravenous) increased the lung areas from 7% to almost 20% and thus caused a deterioration in matching (FIG. 5). Corresponding to the matching, PGI reduced the O2 saturation by 12%, whereas NO brought about an improvement of 5% and sildenafil one of 15% (FIG. 6).

Test [4] concerns patients with chronic thromboembolism and displaying secondary PHT. Nature of the test: Low V/Q perfusion by MIGET in patients with chronic thromboembolism. It counts as in vivo, human. The settings on record: for effect on low-V/Q perfusion / ventilation/perfusion distribution (words): 7 patients with CTEPH; for low V/Q perfusion (MIGET), level reached: 7 patients, control 3.25%, PGI i.v. 6 ng/kg/min, NO 20 ppm inhaled, sildenafil 50 mg oral. The protocol: FIG. 3: Result of determination of the low V/Q perfusion measured by the inert gas exchange method (MIGET) [Wagner et al. J Appl Physiol. 1974;36:588-99] from 7 patients with chronic thromboembolism and displaying secondary PHT (pulmonary hypertension). Compared with the control group (3.25%), the shunting was increased with PGI (i.v.) [6 ng/kg bodyweight/min] to 19%, with NO (inhaled) [20 ppm] to 5.3% and with sildenafil (oral) [50 mg] to 5.3%.
as §1

“Also recorded” adds a separate entry of the source.

Regarding `[N]=O` [NO, nitric oxide], in test [1], the “effect on pulmonary vascular resistance” value was “marked reduction” and the “vascular resistance (PVR), reduction” value is 19%. For the same compound, in test [2], the “effect on O2 saturation” value was “marked increases in O2 saturation” and the “oxygenation index (PaO2/FiO2), raised compared with the control (190)” value is on record as 28%. In test [3], the “effect on pulmonary vascular resistance” value was “marked reduction” and the “pulmonary vascular resistance (PVR), reduction” value is “about 25%”. Besides, in test [4], the “effect on low-V/Q perfusion / ventilation/perfusion distribution (words)” value is on record as “virtually unchanged; also recorded: increased slightly” and the “low V/Q perfusion (MIGET), level reached” value stood at 5.3%.
For `CCCCC[C@H](O)/C=C/[C@@H]1[C@H]2C/C(=C/CCCC(=O)O)O[C@H]2C[C@H]1O` [PGI, prostacyclin], in test [1], the “effect on pulmonary vascular resistance” value is recorded as “marked reduction” and the “vascular resistance (PVR), reduction” value is 25%. Besides, in test [2], the “effect on O2 saturation” value is “reduced O2 saturation”. Moreover, the “oxygenation index (PaO2/FiO2), reduction compared with the control (190)” value in test [2] (PGI 6 ng/kg/min systemic) turned out to be 60%. In test [3], the “effect on pulmonary vascular resistance” value is listed as “marked reduction” and the “pulmonary vascular resistance (PVR), reduction” value was “about 25%”. Moreover, in test [4], the “effect on low-V/Q perfusion / ventilation/perfusion distribution (words)” value was “greatly increased” and the “low V/Q perfusion (MIGET), level reached” value came out at 19%.
For `CCCc1nn(C)c2c(=O)[nH]c(-c3cc(S(=O)(=O)N4CCN(C)CC4)ccc3OCC)nc12` [sildenafil, 5-[2-ethoxy-5-(4-methyl-1-piperazinyl-sulphonyl)phenyl]-1-methyl-3-n-propyl-1,6-dihydro-7H-pyrazolo[4,3-d]pyrimidin-7-one], in test [1], the “effect on pulmonary vascular resistance” value is “marked reduction” and the “vascular resistance (PVR), reduction” value turned out to be 21%. Moreover, in test [2], the “effect on O2 saturation” value is reported as “marked increases in O2 saturation” and the “oxygenation index (PaO2/FiO2), raised compared with the control (190)” value came out at 31%. Besides, in test [3], the “effect on pulmonary vascular resistance” value is “marked reduction” and the “pulmonary vascular resistance (PVR), reduction” value is “about 25%”. In test [4], the “effect on low-V/Q perfusion / ventilation/perfusion distribution (words)” value was “virtually unchanged” and the “low V/Q perfusion (MIGET), level reached” value was 5.3%. In test [4] (listed as Sildenafil), the “effect on low-V/Q perfusion / ventilation/perfusion distribution (words)” value is listed as “same effect as NO (inhaled)”.

(Values after US20050107394A1, “Novel use of selective pde5 inhibitors” (priority 2001, published 2005).)
